According to US20100291592A1, “NOVEL MARKER FOR SENSITIVITY AGAINST SULFONAMIDE COMPOUND” (priority 2006, published 2010):

What was measured:
EGFR1 = EGFR1 expression level in HCT116 subcutaneous transplant model (western blotting); format: in vivo, nude mouse; settings: for EGFR1 expression level (% of control) HCT116: HCT116 tumor in nude mouse
Experimental: HCT116 or WiDr was cultured in RPMI1640 (containing 10% FBS) in a 5% carbon dioxide incubator to about 80% confluence. The cells were collected with trypsin-EDTA according to a routine procedure and 5×10^7 cells/mL suspensions were prepared with a phosphate buffer. Then, 0.1 mL each of the resulting suspension was subcutaneously transplanted to the side of a nude mouse.
For HCT116, 23 days after the transplantation, E7820 was orally administered for 12.5 mg/kg, 50 mg/kg or 200 mg/kg twice a day for 3 days. On the other hand, for WiDr, 18 days after the transplantation, E7820 was orally administered for 50 mg/kg or 200 mg/kg twice a day for 7 days. Four days after the start of administration for HCT116 and 8 days after the start of administration for WiDr, tumors were removed to prepare tumor cell lysates with various protease inhibitors and a cell lysis solution containing 10% glycerol and 1% Triton X-100 in ice. For each tumor cell lysate, an equal amount of protein was fractionated by SDS-PAGE and transferred onto a nitrocellulose membrane (Hybond ECL, Amersham Biosciences). Then, western blotting was performed by using an anti-EGFR1 antibody (Santa Cruz Biotechnology) and horse radish peroxidase-labeled anti-mouse IgG antibody (secondary antibody) (Cell Signaling) according to a routine procedure.
Detection and quantification of each band were carried out as follows. First, each band was forced to chemically develop a color with Chemiluminescent Substrate (PIERCE), which was then captured as a digital image with Image Master VDS-CL (Amersham Pharmacia Biotech, Tokyo). The digital images were saved as TIF files and numerically converted with Image Master total Lab (version 1.00, Amersham Pharmacia Biotech, Tokyo).

[1] = tested on: human colon cancer cell line (HCT116); assay: Anti-tumor effect on subcutaneous transplant model of HCT116; format: in vivo, nude mouse; settings: 6.25-200 mg/kg orally twice a day for 14 days
Experimental: Human non-small-cell lung cancer cell line PC9 (obtained from Immuno-Biological laboratories Co., Ltd.), human non-small-cell lung cancer cell line A549 (obtained from Dainippon Pharmaceutical), human colon cancer cell line WiDr (obtained from Dainippon Pharmaceutical) and human colon cancer cell line HCT116 (obtained from ATCC) were cultured in RPMI1640 (containing 10% FBS) in a 5% carbon dioxide incubator at 37° C. to about 80% confluence, and the cells were collected with trypsin-EDTA. Using a phosphate buffer for PC9, WiDr and HCT116 and a 50% matrigel-containing phosphate buffer for A549, 5×10^7 cells/mL suspensions were prepared, respectively. Then, 0.1 mL each of the resulting cell suspensions was subcutaneously transplanted to the side of a nude mouse.
For PC9, 8 days after the transplantation, E7820 was orally administered for 50 mg/kg, 100 mg/kg or 200 mg/kg twice a day for 14 days. For A549, 24 days after the transplantation, E7820 was orally administered for 50 mg/kg or 200 mg/kg twice a day for 7 days. For WiDr, 11 days after the transplantation, E7820 was orally administered for 50 mg/kg, 100 mg/kg or 200 mg/kg twice a day for 14 days. […]
The major and minor axes of tumors were measured with Digimatic caliper (Mitsutoyo), and tumor volumes and relative tumor volumes were calculated according to the following formulae. […]

Cc1ccc(NS(=O)(=O)c2cccc(C#N)c2)c2[nH]cc(C#N)c12 [E7820, N-(3-cyano-4-methyl-1H-indole-7-yl)-3-cyanobenzenesulfonamide]
Effect on EGFR1 expression level (in words) (EGFR1; HCT116 transplanted tumors, dose-dependent): decreased the EGFR1 expression level | EGFR1 expression level (% of control) HCT116 (EGFR1; 12.5 mg/kg orally twice a day for 3 days): 37 % of control | EGFR1 expression level (% of control) HCT116 (EGFR1; 50 mg/kg orally twice a day for 3 days): 47 % of control | EGFR1 expression level (% of control) HCT116 (EGFR1; 200 mg/kg orally twice a day for 3 days): 42 % of control | Anti-tumor effect (relative tumor volume) [1]: stronger anti-tumor effects
